Tests used:
[1] = tested on: Leishmania donovani promastigotes; test: In vitro antileishmanial activity assay, promastigotes (MTT); assay type: cell-based; details: for Therapeutic Index (TC50/IC50) promastigotes: TC50 RAW 264.7 / IC50 promastigotes
[2] = tested on: RAW 264.7 macrophage cell line; test: Cytotoxicity test against RAW macrophage cell line using MTT assay; assay type: cell-based, murine; details: RAW 264.7, 48 hours
Procedure: A murine macrophage cell line (RAW 264.7) was cultured in DMEM medium supplemented with penicillin G sodium (100 μg/mL), streptomycin sulfate (100 μg/mL) and 10% FBS. Macrophages at a density of 1 x 10^6 cells/mL were incubated at different concentrations (ranging from 0.39–100 μg/mL) of the compounds for 48 hours in a CO2 incubator (5% CO2, 37° C). Macrophages without any treatment were taken as negative control and amphotericin B was used as positive control. At the termination of the assay, MTT was added and incubated for an additional 3 hours. Acidified isopropanol was added to the set-up to solubilize the formazan crystals formed by the viable cells. The intensity of formazan formation was read on an Elisa plate reader (Varioskan Lux Elisa microplate reader, Thermo Fischer Scientific, USA) at 570 nm. The 50% cytotoxic concentrations (CC50) of the compounds were determined by analysis of dose-response curves. Selectivity index or therapeutic index was calculated as a ratio of CC50 RAW 264.7/IC50 L. donovani promastigotes or amastigotes.

[3] = tested on: Leishmania donovani promastigotes; test: Growth kinetics assay against promastigotes; assay type: cell-based; details: for incubation time after which decline in the parasite population was observed: promastigotes, 1μg/mL
Procedure: Promastigotes of L. donovani (2 x 10^4 cells) were incubated at 25° C in the presence of the test compounds (at 1μg/mL for each compound) in M199 containing 10% FBS (complete medium). Promastigotes treated with amphotericin B (0–50 μg/ml) served as positive control while untreated promastigotes in the medium alone served as negative control. Aliquots from treated and control parasites were diluted in 0.02 M PBS (pH 7.2) and the viable cells counted daily for 5 days using a Neubauer haemocytometer and a phase-contrast microscope under a 40x objective.

[4] = tested on: Leishmania donovani promastigotes; test: Growth reversibility assay (cytocidal/cytostatic) against promastigotes; assay type: cell-based; details: for cytocidal or cytostatic effect: growth reversibility profile after drug withdrawal; for growth reversal / reversibility of growth inhibition: promastigotes washed after 5 days of treatment; for growth reversal: regrown 4 days in fresh medium; for reversibility of growth inhibition: regrown 4 days
Procedure: However, to confirm the cytocidal or cytostatic effect of the test compounds, the treated and untreated parasites after 5 days of incubation were washed twice with fresh M199 and then resuspended in complete M199 media and allowed to grow further at 25° C; the viable promastigotes were enumerated microscopically after 4 days.

[5] = tested on: Leishmania donovani amastigotes; test: In vitro antileishmanial activity assay, macrophage-amastigotes model (MTT); assay type: cell-based; details: TC50 RAW 264.7 / IC50 amastigotes
Procedure: Leishmania donovani (MHOM/SD/62/1S strain) was a kind gift from Dr. Yamthe Lauve (Bei Resources NIAID, NIH). The promastigotes were cultured in M199 medium supplemented with 10% heat-inactivated fetal bovine serum (FBS), penicillin G sodium (100 μg/mL) and streptomycin sulfate (100 μg/mL) at 25° C and subcultured every 72 hours in the same medium at a mean density of 1 x 10^5 cells/mL [9]. The murine macrophage cell line RAW 264.7 (RIKEN BioResource Centre Cell Bank, Japan) were kindly provided by Professor Regina Appiah-Opong of the Clinical Pathology Department, Noguchi Memorial Institute for Medical Research, Ghana. RAW 264.7 were grown at 37° C in DMEM medium (pH 7.4) supplemented with 10% heat-inactivated FBS for 48–72 hours in 5% CO2 and subcultured in fresh DMEM medium at a mean density of 1 x 10^5 cells/mL.
Amphotericin B was used as a reference antileishmanial drug (positive control). RAW 264.7 macrophage cells were infected with promastigotes at a density of 1:10 ratio for 12 hours, after which the non-phagocytosed promastigotes were discarded (by aspirating them alongside the media) and the amastigote cells within the macrophages were treated with the compounds (in fresh complete media) to test their growth inhibitory activity using the method described previously. Parasite viability was assessed using the 3-(4,5-Dimethylthiazol-2-yl)-2,5-diphenyltetrazolium bromide (MTT) method in which the rate of formazan crystal formation was used as an index of cell viability as described by Mosmann. Fluorescence was measured with a Varioskan Lux Elisa microplate reader (Thermo Fischer Scientific, USA) at a wavelength of 570 nm. The fluorescence counts were plotted against the drug concentrations and the 50% inhibitory concentration (IC50) was determined by analysis of the dose-response curves using excel.

[6] = tested on: Leishmania donovani promastigotes; test: Morphological and mitochondrion integrity analysis by fluorescence microscopy (DAPI, MitoTracker); assay type: cell-based; details: 1μg/mL; for parasite cells with degeneration/disintegration of DNA (nucleus, kinetoplast) and mitochondrion: 72 hours
Procedure: Leishmania donovani promastigotes (2 x 10^4 cells) were treated with the test compounds at 1μg/mL (point concentration). They were then incubated for 24 hours and 72 hours in order to study their morphological changes and to see the changes in their mitochondrial integrity using DAPI and MitoTracker red dye respectively. The assay was performed using the methods described by Amisigo et al with slight modifications. Here the Mitotracker red dye was added to the pelleted promastigote cells at a concentration of 100 nM, resuspended in 1 mL of FBS-free M199 media with 1% BSA (Bovine Serum Albumin) and incubated for 30 minutes.

human red blood cells = test: Haemolysis assay against the human red blood cells; assay type: cell-based; details: 2% haematocrit, 3 hours
Procedure: The haemolytic effect of the compounds were tested against the human red blood cells at a density of 2% haematocrit. The method described by Kazi et al was used with slight modification. In this study, human red blood cells were used, the respective test compounds were incubated for 3 hours and 1% triton X100 served as the positive control. At the end of the assay the supernatant was read on a microtiter plate reader (Varioskan Lux Elisa microplate reader, Thermo Fischer Scientific, USA) at 415 nm. The 50% haemolytic concentration (HC50) of the compounds were determined by analysis of dose-response curves.

L. infantum = tested on: L. infantum; parameters: method as in PMID 25690568; details: earlier report ref 18; cited from earlier work
[7] = tested on: Leishmania donovani promastigote; parameters: method as in PMID 25690568; details: earlier report ref 18; cited from earlier work
[8] = tested on: Leishmania donovani promastigotes; test: Cell cycle progression analysis by flow cytometry; assay type: cell-based; details: 2x IC50, 24 hours; for change in the number of cells at the G2/M phase: versus untreated
Procedure: Guava Cell Cycle Reagent (catalog No. 4500–0220) was used to stain the cells and the number of cells in G0/G1, S and G2/M phases were determined. Briefly, treated and untreated cells were pelleted and fixed in 70% ice-cold ethanol for an hour at -20°C, the suspended cells were then pelleted by centrifugation at 1500 rpm for 10 minutes. The supernatants were discarded, and the pelleted cells were washed twice with 1X PBS to ensure total removal of the ethanol. To a 200 μL of the cell pellets, a 200 μL of the Gauva Cell Cycle Reagent was added and incubated at room temperature (25°C) for 30 minutes in the dark. Cell distribution at the distinct cell cycle phases were measured using flow cytometer (BD LSR Fortessa X-20 analyzer BD Biosciences San Jose, CA 95131 USA). Data generated were analyzed using the FlowJo V10 software.

L. major = tested on: L. major; parameters: method as in PMID 25690568; details: earlier report ref 18; cited from earlier work
[9] = tested on: Leishmania donovani amastigote; parameters: method as in PMID 25690568; details: earlier report ref 18; cited from earlier work
[10] = tested on: Leishmania donovani promastigotes; test: Apoptotic and necrotic potentials, Annexin V-FITC/PI flow cytometry; assay type: cell-based; details: 2x IC50, 24 hours; far less than in the untreated cells
Procedure: Briefly, treated promastigote cells were washed twice with cold 1x PBS and then resuspended in 1x binding buffer at a cell density of 1 x 10^6 cells/mL. To a 100 μL of the suspended cells, 5 μL of Annexin V-FITC and 5 μL of Propidium Iodide (PI) were added. The mixture was gently vortexed and allowed to incubate for 15 minutes at room temperature (25°C) in the dark. To the set-up, 400 μL of 1x binding buffer was added and the assay was read by flow cytometry (BD LSR Fortessa X-20 analyzer BD Biosciences, San Jose, CA 95131 USA) and the results analyzed using FlowJo version 10 software.

| SMILES | Therapeutic Index (TC50/IC50) promastigotes [1] | TC50(μM)±SD RAW [2] | cytocidal or cytostatic effect [4] | growth reversal [4] | Therapeutic Index (TC50/IC50) amastigotes [5] | parasite cells with degeneration/disintegration of DNA (nucleus, kinetoplast) and mitochondrion [6] | HC50 (50% haemolytic concentration) (human red blood cells) | incubation time after which decline in the parasite population was observed [3] | cells at the S phase [8] | change in the number of cells at the G2/M phase [8] | reversibility of growth inhibition [4] | parasite cells showing no obvious DNA and mitochondrion abnormality ([6]; 24 hours) | apoptosis and necrosis of promastigotes [10] | further results |
| --- | --- | --- | --- | --- | --- | --- | --- | --- | --- | --- | --- | --- | --- | --- |
| C[C@@H]1[C@H](O)[C@@H](C)/C=C/C=C/C=C/C=C/C=C/C=C/C=C/[C@H](O[C@@H]2O[C@H](C)[C@@H](O)[C@H](N)[C@@H]2O)C[C@@H]2O[C@](O)(C[C@@H](O)C[C@@H](O)[C@H](O)CC[C@@H](O)C[C@@H](O)CC(=O)O[C@H]1C)C[C@H](O)[C@H]2C(=O)O [Amphotericin B, amphotericin B, reference compound] | 3.0 | 15.75 ± 0.03 µM |  |  |  |  |  |  |  |  |  |  |  | IC50 ([1]; Leishmania donovani, 96 h, promastigotes, 4 days at 25° C, MTT, mean ±SD of three experiments): 5.3 ± 0.03 µM; effect on growth of promastigotes (growth kinetics) ([3]; viable cells counted daily for 5 days, compared with untreated control): no viable cells observed after 24 hours |
| CNC(=O)C1Cc2ccccc2N1C(=O)Cc1ccc(F)cc1 (centres unmarked) [MMV188296] | 914 |  | cytostatic | 56.5% | 237 | more than 90% | >100 µg/mL | 48 h |  |  |  |  |  | parasite population with loss in mitochondrion integrity ([6]; 24 hours): 40% |
| CC(C)(C)OC(=O)N1CCN(c2[nH]nnc2-c2ccc(Oc3ccccc3)cc2)CC1 [MMV676057] | 432 |  | cytocidal |  | 16 | about 85% | >100 µg/mL | 48 h | 23% | no significant change | not reversible | About 70% | slight apoptosis and necrosis | IC50 (L. infantum): 10.2 µM; IC50 [7]: 1300 nM; cells at the G0-G1 phase ([8]; untreated 30%): 23%; IC50 (L. major): 13 µM; IC50 [9]: > 10 µM |
| Cc1nn2c(=O)c3c([nH]c2c1-c1ccc(Cl)cc1)CCCC3 [MMV688776] | 19 | 50 ± 0.02 µM | cytostatic | 57.9% | 1 | About 70% | >100 µg/mL | 24 h |  |  |  | About 70% |  |  |
| CCc1nn(C)c(C(=O)NCc2ccc(Oc3ccc(C)cc3)cc2)c1Cl [MMV688934] | 416 |  | cytostatic | 32.3% | 453 | more than 90% | >100 µg/mL | 24 h |  |  |  |  |  | promastigotes showing enlargement of the nucleus and kinetoplast with the mitochondria losing its normal shape ([6]; 24 hours): 70% |
| CC(C)(C)C(O)C(Oc1ccc(-c2ccccc2)cc1)n1cncn1 (centres unmarked) [MMV688942] | 43 |  | cytocidal |  | 16 | 85% | >100 µg/mL | 48 h | 28% | no significant change | not reversible |  | slight apoptosis and necrosis | parasites showing loss of kinetoplast ([6]; 24 hours): about 30% |

From paper PMC7176276, “Elucidating the possible mechanism of action of some pathogen box compounds against Leishmania donovani” (PLoS Neglected Tropical Diseases, 2020)
